Assay [1] addresses T1, DNA gyrase of Escherichia coli (Escherichia coli, UniProt P0AES4+P0AES6).
T1 construct: purchased John Innes Enterprises #K0001
The assay is described as follows: DNA gyrase inhibition (supercoiling assay kit), Exp. Ex. 1-2. Type of assay: biochemical. The conditions noted are these: E. coli DNA gyrase supercoiling, relaxed pBR322, 37° C., 30 minutes; read-out: Gyrase inhibitory activity IC50 (converted). The essentials:
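Relaxed pBR322 DNA […] supercoiled by 1 U E. coli gyrase for 30 min at 37 °C in 35 mM Tris-HCl pH 7.5, 24 mM KCl, 4 mM MgCl2, 2 mM DTT, 1.8 mM spermidine, 1 mM ATP, 6.5% glycerol, 0.1 mg/ml BSA. Products resolved by gel electrophoresis; IC50 determined.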

For assay [2], the system named is Vancomycin intermediate-resistant Staphylococcus aureus Mu50. As to the kind of experiment: In vitro infectivity assay (MIC), Exp. Ex. 2-1. In kind it is cell-based. Conditions: Staphylococcus aureus, VISA; Gram-positive; microdilution, MIC after 24 h; read-out: MIC VISA Mu50. The essentials:
(§1)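 Activity is expressed as MIC under CLSI broth dilution, using a starting inoculum near 10^5 CUF/[…] in Mueller-Hinton medium plus 0.85% NaCl; plates sit at 35° C for 24 hours, three measurements.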
Background: Broth dilution looks for growth in wells or tubes with falling amounts of substance.

The subject of assay [3] is Vancomycin-resistant enterococci FN-1. The assay is described as follows: In vitro infectivity assay (MIC), Exp. Ex. 2-1. Type of assay: cell-based. The conditions noted are these: Enterococcus, VRE; Gram-positive; microdilution, MIC after 24 h; read-out: MIC VRE FN-1. Put shortly: as §1
Assay [4] concerns Vancomycin-resistant enterococci NCTC 12201. The assay is described as follows: In vitro infectivity assay (MIC), Exp. Ex. 2-1. Type of assay: cell-based. The conditions noted are these: Enterococcus, NCTC 12201 / VRE; Gram-positive; microdilution, MIC after 24 h; read-out: MIC VRE NCTC 12201. Put shortly: as §1
In assay [5] the test system is Methicillin sensitive S. aureus 209P. As to the kind of experiment: In vitro infectivity assay (MIC), Exp. Ex. 2-1. Type of assay: cell-based, Staphylococcus aureus. The conditions noted are these: Staphylococcus aureus, 209P / MSSA; Gram-positive; microdilution, MIC after 24 h; read-out: MIC MSSA 209P. The essentials:
as §1

The test system of assay [6] is Methicillin-resistant S. aureus COL. The assay is described as follows: In vitro infectivity assay (MIC), Exp. Ex. 2-1. In kind it is cell-based, Staphylococcus aureus. Conditions: Staphylococcus aureus, MRSA; Gram-positive; microdilution, MIC after 24 h.
Assay [7] relates to Methicillin-resistant S. aureus N315. The assay is described as follows: In vitro infectivity assay (MIC), Exp. Ex. 2-1. Type of assay: cell-based, Staphylococcus aureus. The conditions noted are these: Staphylococcus aureus, MRSA; Gram-positive; microdilution, MIC after 24 h; read-out: MIC MRSA N315. Put shortly:
as §1

In assay [8] the test system is Methicillin-resistant S. aureus OM481. The assay is described as follows: In vitro infectivity assay (MIC), Exp. Ex. 2-1. Type of assay: cell-based, Staphylococcus aureus. Conditions: Staphylococcus aureus, MRSA; Gram-positive; microdilution, MIC after 24 h; read-out: MIC MRSA OM481. The essentials:
as §1

Assay [9] concerns Streptococcus pneumoniae R6. As to the kind of experiment: In vitro infectivity assay (MIC), Exp. Ex. 2-1. In kind it is cell-based. Conditions: Streptococcus pneumoniae, R6; Gram-positive; microdilution, MIC after 24 h; read-out: MIC S. Pneumoniae R6.
In a further assay the target is T2, E. coli DNA gyrase (Escherichia coli, UniProt P0AES4+P0AES6).
T2 construct: purchased John Innes Enterprises #K0001
T2 sequence (P0AES4 whole entry, one chain of several): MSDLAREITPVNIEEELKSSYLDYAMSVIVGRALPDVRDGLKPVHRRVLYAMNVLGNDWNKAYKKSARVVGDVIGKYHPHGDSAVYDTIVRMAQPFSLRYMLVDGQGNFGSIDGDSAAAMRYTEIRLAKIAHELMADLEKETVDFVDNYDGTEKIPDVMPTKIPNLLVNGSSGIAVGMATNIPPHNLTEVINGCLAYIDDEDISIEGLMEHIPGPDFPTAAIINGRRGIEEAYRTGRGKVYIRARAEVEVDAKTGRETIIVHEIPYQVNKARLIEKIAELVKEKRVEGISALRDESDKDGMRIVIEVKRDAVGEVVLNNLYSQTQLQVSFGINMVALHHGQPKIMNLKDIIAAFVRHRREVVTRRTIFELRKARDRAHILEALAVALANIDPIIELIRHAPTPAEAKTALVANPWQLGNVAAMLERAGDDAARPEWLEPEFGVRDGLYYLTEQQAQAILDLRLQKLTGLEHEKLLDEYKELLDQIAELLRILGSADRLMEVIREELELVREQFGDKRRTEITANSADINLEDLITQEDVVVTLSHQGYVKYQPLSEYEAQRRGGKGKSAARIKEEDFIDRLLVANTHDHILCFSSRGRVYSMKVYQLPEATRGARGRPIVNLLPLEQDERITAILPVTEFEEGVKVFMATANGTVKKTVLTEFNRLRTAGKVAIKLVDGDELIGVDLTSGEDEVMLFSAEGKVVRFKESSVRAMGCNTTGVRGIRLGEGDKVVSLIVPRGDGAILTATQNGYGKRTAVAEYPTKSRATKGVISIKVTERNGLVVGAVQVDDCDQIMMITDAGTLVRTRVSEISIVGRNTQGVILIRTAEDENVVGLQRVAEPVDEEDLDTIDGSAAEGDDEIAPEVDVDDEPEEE
The assay is described as follows: DNA gyrase inhibition (supercoiling kit), Exp. Ex. 2-2. Type of assay: biochemical. Put shortly: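 IC50 derived from gel electrophoresis separating supercoiled from relaxed DNA. Reactions ran 30 minutes at 37° C with 1 U gyrase, […] relaxed pBR322, 1 mM ATP and 4 mM MgCl2 in Tris-HCl buffer (pH 7.5), then stopped with EDTA-containing solution.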

In assay [10] the target is T3, Escherichia coli Topoisomerase IV (Escherichia coli, UniProt P0AFI2+P20083).
T3 construct: purchased John Innes Enterprises
T3 sequence (P20083 whole entry): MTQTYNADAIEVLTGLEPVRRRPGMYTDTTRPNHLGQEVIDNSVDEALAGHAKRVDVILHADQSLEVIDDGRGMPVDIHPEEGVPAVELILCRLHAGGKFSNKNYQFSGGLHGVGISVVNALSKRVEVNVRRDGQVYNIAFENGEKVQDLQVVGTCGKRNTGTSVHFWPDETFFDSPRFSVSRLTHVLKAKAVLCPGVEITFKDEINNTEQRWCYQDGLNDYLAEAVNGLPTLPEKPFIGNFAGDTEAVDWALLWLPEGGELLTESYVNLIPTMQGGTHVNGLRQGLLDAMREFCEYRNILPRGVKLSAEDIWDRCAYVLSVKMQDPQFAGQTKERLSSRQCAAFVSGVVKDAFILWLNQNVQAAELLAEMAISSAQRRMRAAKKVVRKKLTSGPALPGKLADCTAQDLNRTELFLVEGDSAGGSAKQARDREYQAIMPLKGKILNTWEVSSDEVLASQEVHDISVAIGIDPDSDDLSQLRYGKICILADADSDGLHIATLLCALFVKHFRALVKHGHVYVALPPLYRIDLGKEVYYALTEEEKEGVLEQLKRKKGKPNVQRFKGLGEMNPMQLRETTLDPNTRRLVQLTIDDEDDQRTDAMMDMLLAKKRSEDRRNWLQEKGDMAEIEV
T3 sequence (P0AFI2 whole entry): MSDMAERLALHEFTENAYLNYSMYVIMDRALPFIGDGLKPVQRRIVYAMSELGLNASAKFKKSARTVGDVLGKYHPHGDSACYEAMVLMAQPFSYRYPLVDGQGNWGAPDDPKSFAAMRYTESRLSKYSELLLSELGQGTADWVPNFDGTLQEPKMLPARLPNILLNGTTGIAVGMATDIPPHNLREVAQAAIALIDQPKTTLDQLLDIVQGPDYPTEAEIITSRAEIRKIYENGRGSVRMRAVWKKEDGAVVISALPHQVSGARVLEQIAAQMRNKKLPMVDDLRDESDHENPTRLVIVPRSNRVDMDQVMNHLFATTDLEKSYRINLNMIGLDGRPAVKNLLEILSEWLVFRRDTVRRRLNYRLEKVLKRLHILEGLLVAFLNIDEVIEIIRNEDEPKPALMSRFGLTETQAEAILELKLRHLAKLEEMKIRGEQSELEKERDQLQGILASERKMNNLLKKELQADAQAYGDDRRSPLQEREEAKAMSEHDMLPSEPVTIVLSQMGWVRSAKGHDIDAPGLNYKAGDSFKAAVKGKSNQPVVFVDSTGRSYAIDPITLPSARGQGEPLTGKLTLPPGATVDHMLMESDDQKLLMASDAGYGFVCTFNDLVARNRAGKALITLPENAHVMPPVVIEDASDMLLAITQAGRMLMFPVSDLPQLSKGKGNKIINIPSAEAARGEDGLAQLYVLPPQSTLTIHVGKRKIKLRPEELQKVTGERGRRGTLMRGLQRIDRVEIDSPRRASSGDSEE
As to the kind of experiment: Topoisomerase IV inhibition (decatenation kit), Exp. Ex. 2-3. In kind it is biochemical. The conditions noted are these: decatenation of kDNA, 37° C., 30 minutes; read-out: IC50 (E. coli topoisomerase IV inhibitions). The essentials: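 Decatenation of 200 ng kinetoplast DNA by 1 unit enzyme, 30 min at 37 °C. S. aureus: 50 mM Tris-HCl pH 7.5, 350 mM potassium glutamate, 1.5 mM ATP; E. coli: 50 mM HEPES-KOH pH 7.6, 100 mM potassium glutamate, 1 mM ATP. Products resolved on 1.0% agarose in TAE.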

Each structure is given as a SMILES string.

The term IC50 denotes the concentration that inhibits the measured activity by half. The MIC is the least concentration at which growth counts as inhibited.

T1 sequence (P0AES4 whole entry, one chain of several): as the sequence (P0AES4 whole entry, one chain of several) above

Take `O=c1c(O)c(-c2ccc(O)c(O)c2)oc2cc(O)cc(O)c12` [Quercetin, quercetin, reference compound]: the IC50 was 2.61 µM in assay [1], 0.14 µM against E. coli DNA gyrase and 4.42 µM in assay [10]. The MIC in [2], in assay [3], in assay [4], in assay [5], in assay [6] and in assay [7] was more than 128 µg/mL each time. For the same compound, the MIC in assay [8] and in assay [9] was more than 128 µg/mL each time.
